Experimental data: patent US20090324508A1, “Broad Spectrum and Skin Friendly Disinfecting Composition” (CENTENNIAL VENTURES B.V., priority 2006, published 2009)

Assay: Foam test, dispensing from a foam dispenser
Assay type: physicochemical
Conditions: in the presence of an alcohol
Experimental: Preferably, the foam booster used in the composition of the invention provides a stable foam when dispensing a composition consisting of 36% (w/w) ethanol and 0.2% (w/w), preferably 0.3% (w/w), of the foam booster from a foam dispenser with a relatively high air to liquid ratio, preferably an air to liquid ratio of 9-11, more preferably an air to liquid ratio of 11, on an inert and smooth surface at about 20° C. A suitable foam pump is for instance the L11 foam pump from Rexam Airspray, which has an air to liquid ratio of 11, a liquid output volume of 0.75 ml, a stroke of 14.8 mm. The foam is optimally produced by applying regular speed and pressure onto the foam dispenser, as is known to one skilled in the art.
According to this invention, a stable foam is a foam that remains as a foam for at least 5-10 seconds, preferably for at least 10-15 seconds, more preferably for at least 15-20 seconds, even more preferably for at least 20-25 seconds, most preferably for at least 25-30 seconds, as measured immediately after dispensing from a foam dispenser as mentioned above.

**Q.** Which “Foam stability as foam booster” value does the source give for `CCCCCCCCCCCCc1ccc(S(=O)(=O)O)cc1` [dodecyl benzene sulphonic acid] here?
**A.** do not provide a stable foam

**Q.** With sodium lauryl ether sulphate as the compound, how does the “Foam stability as foam booster” value read?
**A.** do not provide a stable foam
